This note sets out measurements from ChEMBL document CHEMBL4706513, “New insight into 20(S)-ginsenoside Rh2 against T-cell acute lymphoblastic leukemia associated with the gut microbiota and the immune system” (2020).

The subject of assay [1] is Jurkat. In words: Antitumour activity against human Jurkat cells xenografted in SCID/NOD mouse assessed as reduction of inactivity and messy hair at 40 mg/kg, po administered once a day for 3 weeks. The assay is classed as functional, organism-based. Particulars: dose 40.0 mg/kg/day.
The subject of assay [2] is Jurkat. The assay can be described thus: Antitumour activity against human Jurkat cells xenografted in SCID/NOD mouse assessed as increase in body weight at 40 mg/kg, po administered once a day for 3 weeks. In kind it is functional, organism-based. Particulars: dose 40.0 mg/kg/day. For orientation: Xenograft models place foreign cells or tissue in a host animal.
The test system of assay [3] is Jurkat. The assay can be described thus: Antitumour activity against human Jurkat cells xenografted in SCID/NOD mouse assessed as proportion of CD3-positive cells in peripheral blood at 40 mg/kg, po administered once a day for 3 weeks by immunophenotyping based flow cytometry method (reference value: 18.81%). The assay is classed as functional. As to conditions: dose 40 mg/kg/day.

Assay [4] deals with Jurkat. The assay can be described thus: Antitumour activity against human Jurkat cells xenografted in SCID/NOD mouse assessed as proportion of CD45-positive cells in peripheral blood at 40 mg/kg, po administered once a day for 3 weeks by immunophenotyping based flow cytometry method (reference value: 4.88%). In kind it is functional. Particulars: dose 40 mg/kg/day.
Assay [5] deals with Jurkat. In words: Antitumour activity against human Jurkat cells xenografted in SCID/NOD mouse assessed as decrease in expression of CD3 in bone marrow at 40 mg/kg, po administered once a day for 3 weeks by immunohistochemical staining method. The assay is classed as functional, organism-based. Particulars: dose 40.0 mg/kg/day.
Assay [6] relates to Mus musculus. In words: Antitumour activity against human Jurkat cells xenografted in SCID/NOD mouse assessed as decrease in expression of CD45 in bone marrow at 40 mg/kg, po administered once a day for 3 weeks by immunohistochemical staining method. The assay is classed as functional, organism-based. As to conditions: dose 40.0 mg/kg/day.
The subject of assay [7] is Mus musculus. The assay can be described thus: Inhibition of spleen infiltration in SCID/NOD mouse xenografted with human Jurkat cells assessed as reduction in spleen enlargement at 40 mg/kg, po administered once a day for 3 weeks. The assay is classed as functional, organism-based. As to conditions: dose 40.0 mg/kg/day.
The test system of assay [8] is Mus musculus. The assay can be described thus: Inhibition of spleen infiltration in SCID/NOD mouse xenografted with human Jurkat cells assessed as reduction in spleen index at 40 mg/kg, po administered once a day for 3 weeks. The assay is classed as functional, organism-based. Particulars: dose 40.0 mg/kg/day.
The test system of assay [9] is Mus musculus. The assay can be described thus: Inhibition of spleen infiltration in SCID/NOD mouse xenografted with human Jurkat cells assessed as decrease in CD3 expression in spleen at 40 mg/kg, po once a day for 3 weeks by immunohistochemical staining method. In kind it is functional, organism-based. As to conditions: dose 40.0 mg/kg/day.
For assay [10], the system named is Mus musculus. In words: Inhibition of spleen infiltration in SCID/NOD mouse xenografted with human Jurkat cells assessed as decrease in CD45 expression in spleen at 40 mg/kg, po once a day for 3 weeks by immunohistochemical staining method. In kind it is functional, organism-based. As to conditions: dose 40.0 mg/kg/day.
Assay [11] deals with Mus musculus. In words: In vivo inhibition of PI3K phosphorylation at Ser249 residue in spleen of SCID/NOD mouse xenografted with human Jurkat cells at 40 mg/kg, po administered once a day for 3 weeks by Western blot method. In kind it is functional, organism-based. Particulars: dose 40.0 mg/kg/day.
Assay [12] has as its system Mus musculus. In words: In vivo inhibition of Akt phosphorylation at Ser473 residue in spleen of SCID/NOD mouse xenografted with human Jurkat cells at 40 mg/kg, po administered once a day for 3 weeks by Western blot method. In kind it is functional, organism-based. Particulars: dose 40.0 mg/kg/day.
In assay [13] the test system is Mus musculus. The assay can be described thus: In vivo inhibition of mTOR phosphorylation at Ser2448 residue in spleen of SCID/NOD mouse xenografted with human Jurkat cells at 40 mg/kg, po administered once a day for 3 weeks by Western blot method. In kind it is functional, organism-based. As to conditions: dose 40.0 mg/kg/day.
Assay [14] deals with Mus musculus. In words: Induction of immune response in SCID/NOD mouse xenografted with human Jurkat cells assessed as increase in IL-2 level in spleen at 40 mg/kg, po administered once a day for 3 weeks by ELISA reader method. In kind it is functional, organism-based. As to conditions: dose 40.0 mg/kg/day.
The test system of assay [15] is Mus musculus. The assay can be described thus: Induction of immune response in SCID/NOD mouse xenografted with human Jurkat cells assessed as increase in IFN-gamma level in spleen at 40 mg/kg, po administered once a day for 3 weeks by ELISA reader method. In kind it is functional, organism-based. Particulars: dose 40.0 mg/kg/day.
Assay [16] deals with Mus musculus. The assay can be described thus: Induction of immune response in SCID/NOD mouse xenografted with human Jurkat cells assessed as increase in NK cells in spleen at 40 mg/kg, po administered once a day for 3 weeks by ELISA reader method. The assay is classed as functional, organism-based. Particulars: dose 40.0 mg/kg/day.
For assay [17], the system named is Mus musculus. In words: Induction of immune response in SCID/NOD mouse xenografted with human Jurkat cells assessed as decrease in IL-4 level in spleen at 40 mg/kg, po administered once a day for 3 weeks by ELISA reader method. In kind it is functional, organism-based. Particulars: dose 40.0 mg/kg/day.
In assay [18] the test system is Mus musculus. The assay can be described thus: Induction of immune response in SCID/NOD mouse xenografted with human Jurkat cells assessed as decrease in IL-6 level in spleen at 40 mg/kg, po administered once a day for 3 weeks by ELISA reader method. The assay is classed as functional, organism-based. As to conditions: dose 40.0 mg/kg/day.
For assay [19], the system named is Mus musculus. The assay can be described thus: Induction of immune response in SCID/NOD mouse xenografted with human Jurkat cells assessed as decrease in IL-10 level in spleen at 40 mg/kg, po administered once a day for 3 weeks by ELISA reader method. In kind it is functional, organism-based. As to conditions: dose 40.0 mg/kg/day.
Assay [20] has as its system Mus musculus. The assay can be described thus: Induction of intestinal homeostasis in SCID/NOD mouse xenografted with human Jurkat cells assessed as decrease of enlargement of epithelial cells and infiltration of inflammatory cells in the colon at 40 mg/kg, po administered once a day for 3 weeks by Hand E staining based microscopic analysis. In kind it is functional, organism-based. As to conditions: dose 40.0 mg/kg/day.

The subject of assay [21] is Mus musculus. The assay can be described thus: Induction of intestinal homeostasis in SCID/NOD mouse xenografted with human Jurkat cells assessed as increase in goblet cells in the glands at 40 mg/kg, po administered once a day for 3 weeks by Hand E staining based microscopic analysis. The assay is classed as functional, organism-based. Particulars: dose 40.0 mg/kg/day.

The test system of assay [22] is Mus musculus. In words: Induction of intestinal homeostasis in SCID/NOD mouse xenografted with human Jurkat cells assessed as upregulation of ZO-1 mRNA levels in colon at 40 mg/kg, po administered once a day for 3 weeks by real time RT-PCR analysis. In kind it is functional, organism-based. Particulars: dose 40.0 mg/kg/day.
Assay [23] deals with Mus musculus. In words: Induction of intestinal homeostasis in SCID/NOD mouse xenografted with human Jurkat cells assessed as upregulation of occludin mRNA levels in colon at 40 mg/kg, po administered once a day for 3 weeks by real time RT-PCR analysis. The assay is classed as functional, organism-based. As to conditions: dose 40.0 mg/kg/day.
Assay [24] has as its system Mus musculus. The assay can be described thus: Induction of intestinal homeostasis in SCID/NOD mouse xenografted with human Jurkat cells assessed as upregulation of claudin-1 mRNA levels in colon at 40 mg/kg, po administered once a day for 3 weeks by real time RT-PCR analysis. The assay is classed as functional, organism-based. Particulars: dose 40.0 mg/kg/day.

Activity calls are given as the source filed them. The calls are words filed in the database; no cut-off is given here.

With `CC(C)=CCC[C@](C)(O)[C@H]1CC[C@]2(C)[C@@H]1[C@H](O)C[C@@H]1[C@@]3(C)CC[C@H](O[C@@H]4O[C@H](CO)[C@@H](O)[C@H](O)[C@H]4O)C(C)(C)[C@@H]3CC[C@]12C` [GINSENOSIDE RH2], the result in the assay on Jurkat [1], with Jurkat [2], with Jurkat [5], with Mus musculus [6], with Mus musculus [14] and in the assay on Mus musculus [15] was Active. In addition, the outcome in the assay on Mus musculus [16], in the assay on Mus musculus [17], with Mus musculus [18], in the assay with Mus musculus [19], in the assay with Mus musculus [20] and in the assay on Mus musculus [21] was Active. The result in the assay with Mus musculus [22], in the assay with Mus musculus [23] and in the assay with Mus musculus [24] was Active. Moreover, the Activity in the assay with Jurkat [3] was 5.78%; in the assay on Jurkat [4], 1.28%. For the same compound, the inhibition entry in the assay with Mus musculus [7], in the assay with Mus musculus [8], with Mus musculus [9], with Mus musculus [10], with Mus musculus [11] and in the assay on Mus musculus [12] was “Active” in each case. Also, the inhibition result in the assay with Mus musculus [13] is “Active”.
